Drawing on patent EP4562004B1, “NOVEL 7-SUBSTITUTED INDOLE SULFONAMIDE DERIVATIVES” (F. Hoffmann-La Roche AG, priority 2022, dated 2024), this text covers IC50 for 23 molecules.

The target of the test is human GPR17 short isoform (Homo sapiens, UniProt Q13304). Description: GPR17 cAMP assay (antagonist mode, TR-FRET cAMP detection). The format is cell-based. The note with it: CHO-K1 cells stably expressing human GPR17 short isoform; with EC80 concentration of agonist MDL29,951, IBMX 0.5mM, forskolin 15µM; normalized to reference antagonist; read-out: hGPR17 cAMP IC50. As for the experimental part: CHO-K1 cells stably expressing vector containing untagged human GPR17 short isoform (Roche) were cultured at 37°C / 5% CO2 in DMEM (Dulbecco's Modified Eagle Medium):F-12 (1:1) supplemented with 10% foetal bovine serum and 400 µg/ml Geneticin.
Chain of human GPR17 short isoform (Q13304 29-367): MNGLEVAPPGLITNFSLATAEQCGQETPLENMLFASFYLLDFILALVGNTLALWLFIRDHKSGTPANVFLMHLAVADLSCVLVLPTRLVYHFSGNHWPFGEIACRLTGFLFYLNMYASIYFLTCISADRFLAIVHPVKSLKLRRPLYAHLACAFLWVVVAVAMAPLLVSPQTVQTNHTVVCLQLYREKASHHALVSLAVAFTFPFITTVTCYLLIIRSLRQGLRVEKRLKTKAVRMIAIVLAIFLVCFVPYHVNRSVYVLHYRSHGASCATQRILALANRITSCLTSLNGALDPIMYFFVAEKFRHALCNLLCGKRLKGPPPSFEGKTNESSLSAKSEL
Changes in intracellular cyclic adenosine monophosphate (cAMP) levels were quantified using the Nano-TRF Detection Assay kit (Roche Diagnostics, Cat. No. 05214386001). This assay allows for direct cAMP quantification in a homogeneous solution. cAMP is detected based on time-resolved fluorescence energy transfer (TR-FRET) and competitive binding of ruthenylated cAMP and endogenous cAMP to an anti-cAMP monoclonal antibody labeled with AlexaFluor-700. The Ruthenium complex serves as the FRET donor and transfers energy to AlexaFluor-700. The FRET signal is inversely proportional to the cAMP concentration.
CHO-GPR17S cells were detached with Accutase and resuspended in assay buffer consisting of Hank's Balanced Salt Solution (HBSS), 10mM HEPES (4-(2-hydroxyethyl) piperazine-1-ethanesulfonic acid solution) and 0.1% bovine serum albumin (pH 7.4). The cells were seeded in black 384-well plates (Corning) at a density of 10'000 cells / 20µl assay buffer until the addition of compounds.
Test antagonist compounds were serially diluted in dimethyl sulfoxide (DMSO) and spotted in 384-well plates. The compounds were then diluted in HBSS buffer supplemented with an EC80 concentration of MDL29,951 (3-(2-Carboxy-4,6-dichloroindol-3-yl)propionic acid) (GPR17 agonist) plus 3-Isobutyl-1-methylxanthine (IBMX) (0.5mM final concentration) and added to the cells at room temperature. Forskolin (15µM final concentration) was added 5 minutes after the test compounds and the cells were incubated at room temperature for 30 minutes. The assay was stopped by adding cAMP detection mix (containing detergents for cell lysis) for 90 minutes at room temperature.
Cellular cAMP was measured using a Paradigm reader (Molecular Devices). The raw data was used to calculate the FRET signal based on the assay's P-factor as per cAMP kit instructions. The data was normalized to the maximal activity of a reference antagonist and dose response curves were fitted to the percent activity of the test compounds using a sigmoidal dose response model (Genedata Screener).
Results in the hGPR17 cAMP assay are provided for compounds of formula I in Table 1 Table 1: […]
Regarding `COc1nc(NS(=O)(=O)c2c[nH]c3c(-n4cccn4)c(C(F)F)ccc23)nc(OC)c1CC(F)F` [Example 52, N-[5-(2,2-difluoroethyl)-4,6-dimethoxy-pyrimidin-2-yl]-6-(difluoromethyl)-7-pyrazol-1-yl-1H-indole-3-sulfonamide], the half-inhibitory concentration (IC50) stood at 68 nM.
On to `COc1nc(NS(=O)(=O)c2c[nH]c3c(-n4ccc(F)n4)c(Cl)ccc23)nc(OC)c1OCC(F)F` [Example 53, 6-chloro-N-[5-(2,2-difluoroethoxy)-4,6-dimethoxy-pyrimidin-2-yl]-7-(3-fluoropyrazol-1-yl)-1H-indole-3-sulfonamide], for which the IC50 was determined as 25 nM.
The same measure for `COc1nc(NS(=O)(=O)c2c[nH]c3c(-n4ccc(F)n4)c(Cl)ccc23)nc(OC)c1OC(F)F` [Example 54, 6-chloro-N-[5-(difluoromethoxy)-4,6-dimethoxy-pyrimidin-2-yl]-7-(3-fluoropyrazol-1-yl)-1H-indole-3-sulfonamide]: 27 nM.
The same measure for `COc1nc(NS(=O)(=O)c2c[nH]c3c(-n4ccc(F)n4)c(Cl)ccc23)nc(OC)c1CC(F)F` [Example 55, 6-chloro-N-[5-(2,2-difluoroethyl)-4,6-dimethoxy-pyrimidin-2-yl]-7-(3-fluoropyrazol-1-yl)-1H-indole-3-sulfonamide]: 25 nM; for `COc1nc(NS(=O)(=O)c2c[nH]c3c(-n4ccc(F)n4)c(Cl)ccc23)nc(OC)c1OCCF` [Example 56, 6-chloro-N-[5-(2-fluoroethoxy)-4,6-dimethoxy-pyrimidin-2-yl]-7-(3-fluoropyrazol-1-yl)-1H-indole-3-sulfonamide]: 49 nM.
As for `COc1nc(NS(=O)(=O)c2c[nH]c3c(-n4nccn4)c(Cl)ccc23)nc(OC)c1OC(F)(F)CF` [Example 57, 6-chloro-N-[4,6-dimethoxy-5-(1,1,2-trifluoroethoxy)pyrimidin-2-yl]-7-(triazol-2-yl)-1H-indole-3-sulfonamide], the IC50 turned out to be 85 nM.
The same measure for `COc1nc(NS(=O)(=O)c2c[nH]c3c(-n4nccn4)c(Cl)ccc23)nc(OC)c1OC(C)(C)CF` [Example 58, 6-chloro-N-[5-(2-fluoro-1,1-dimethyl-ethoxy)-4,6-dimethoxy-pyrimidin-2-yl]-7-(triazol-2-yl)-1H-indole-3-sulfonamide]: 1270 nM; for `[2H]C([2H])(Oc1c(OC)nc(NS(=O)(=O)c2c[nH]c3c(-n4nccn4)c(Cl)ccc23)nc1OC)C(F)F` [Example 59, 6-chloro-N-[5-(1,1-dideuterio-2,2-difluoro-ethoxy)-4,6-dimethoxy-pyrimidin-2-yl]-7-(triazol-2-yl)-1H-indole-3-sulfonamide]: 74 nM.
The same measure for `COc1nc(NS(=O)(=O)c2c[nH]c3c(-n4nccn4)c(Cl)ccc23)nc(OC)c1OCC#N` [Example 60, 6-chloro-N-[5-(cyanomethoxy)-4,6-dimethoxy-pyrimidin-2-yl]-7-(triazol-2-yl)-1H-indole-3-sulfonamide]: 49 nM; for `COc1nc(NS(=O)(=O)c2c[nH]c3c(-n4nccn4)c(Cl)ccc23)nc(OC)c1CCC#N` [Example 61, 6-chloro-N-[5-(2-cyanoethyl)-4,6-dimethoxy-pyrimidin-2-yl]-7-(triazol-2-yl)-1H-indole-3-sulfonamide]: 29 nM.
In the case of `COc1nc(NS(=O)(=O)c2c[nH]c3c(-n4nccn4)c(Cl)ccc23)nc(OC)c1C` [Example 62, 6-chloro-N-(4,6-dimethoxy-5-methyl-pyrimidin-2-yl)-7-(triazol-2-yl)-1H-indole-3-sulfonamide] it was 19 nM; in that of `COc1nc(NS(=O)(=O)c2c[nH]c3c(-n4nccn4)c(Cl)ccc23)nc(OC)c1Br` [Example 63, N-(5-bromo-4,6-dimethoxy-pyrimidin-2-yl)-6-chloro-7-(triazol-2-yl)-1H-indole-3-sulfonamide], 37 nM; in that of `COc1nc(NS(=O)(=O)c2c[nH]c3c(-n4nccn4)c(Cl)c(F)cc23)nc(OC)c1OCC(F)F` [Example 64, 6-chloro-N-[5-(2,2-difluoroethoxy)-4,6-dimethoxy-pyrimidin-2-yl]-5-fluoro-7-(triazol-2-yl)-1H-indole-3-sulfonamide], 75 nM.
As for `COc1nc(NS(=O)(=O)c2c[nH]c3c(-n4cccn4)c(Cl)ccc23)nc(OC)c1OCC(F)F` [Example 65, 6-chloro-N-[5-(2,2-difluoroethoxy)-4,6-dimethoxy-pyrimidin-2-yl]-7-pyrazol-1-yl-1H-indole-3-sulfonamide], the IC50 turned out to be 22 nM.
In the case of `COc1nc(NS(=O)(=O)c2c[nH]c3c(-n4cccn4)c(Cl)ccc23)nc(OC)c1OC(F)F` [Example 66, 6-chloro-N-[5-(difluoromethoxy)-4,6-dimethoxy-pyrimidin-2-yl]-7-pyrazol-1-yl-1H-indole-3-sulfonamide] it was 21 nM.
In the case of `COc1nc(NS(=O)(=O)c2c[nH]c3c(-n4cccn4)c(Cl)ccc23)nc(OC)c1OCCF` [Example 67, 6-chloro-N-[5-(2-fluoroethoxy)-4,6-dimethoxy-pyrimidin-2-yl]-7-pyrazol-1-yl-1H-indole-3-sulfonamide] it was 31 nM; in that of `[2H]C([2H])(F)C([2H])([2H])Oc1c(OC)nc(NS(=O)(=O)c2c[nH]c3c(-n4cccn4)c(Cl)ccc23)nc1OC` [Example 68, 6-chloro-N-[4,6-dimethoxy-5-(1,1,2,2-tetradeuterio-2-fluoro-ethoxy)pyrimidin-2-yl]-7-pyrazol-1-yl-1H-indole-3-sulfonamide], 36 nM.
In the case of `COc1nc(NS(=O)(=O)c2c[nH]c3c(-n4cccn4)c(Cl)ccc23)nc(OC)c1OCC#N` [Example 69, 6-chloro-N-[5-(cyanomethoxy)-4,6-dimethoxy-pyrimidin-2-yl]-7-pyrazol-1-yl-1H-indole-3-sulfonamide], the IC50 stood at 52 nM.
The same measure for `COc1nc(NS(=O)(=O)c2c[nH]c3c(-n4cccn4)c(Cl)ccc23)nc(OC)c1CCC#N` [Example 70, 6-chloro-N-[5-(2-cyanoethyl)-4,6-dimethoxy-pyrimidin-2-yl]-7-pyrazol-1-yl-1H-indole-3-sulfonamide]: 37 nM; for `COc1nc(NS(=O)(=O)c2c[nH]c3c(-n4cccn4)c(Cl)ccc23)ncc1CC(F)F` [Example 71, 6-chloro-N-[5-(2,2-difluoroethyl)-4-methoxy-pyrimidin-2-yl]-7-pyrazol-1-yl-1H-indole-3-sulfonamide]: 63 nM; for `[2H]C([2H])(c1cnc(NS(=O)(=O)c2c[nH]c3c(-n4cccn4)c(Cl)ccc23)nc1OC)C(F)F` [Example 72, 6-chloro-N-[5-(1,1-dideuterio-2,2-difluoroethyl)-4-methoxy-pyrimidin-2-yl]-7-pyrazol-1-yl-1H-indole-3-sulfonamide]: 41 nM.
The same measure for `COc1nc(NS(=O)(=O)c2c[nH]c3c(-n4cccn4)c(Cl)ccc23)nc(OC)c1C1CC1C#N` (centres unmarked) [Example 73, 6-chloro-N-[5-(2-cyanocyclopropyl)-4,6-dimethoxy-pyrimidin-2-yl]-7-pyrazol-1-yl-1H-indole-3-sulfonamide]: 41 nM.
The same measure for `COc1nc(NS(=O)(=O)c2c[nH]c3c(-n4cccn4)c(C)ccc23)nc(OC)c1OCC(F)F` [Example 74, N-[5-(2,2-difluoroethoxy)-4,6-dimethoxy-pyrimidin-2-yl]-6-methyl-7-pyrazol-1-yl-1H-indole-3-sulfonamide]: 59 nM.
